Calls of active or inactive are those of the source. The calls are words filed in the database; no cut-off is given here.

For series [1], the system named is Rattus norvegicus. The experiment in a line: Anticonvulsant activity in Wistar Rattus norvegicus (rat) assessed as protection against maximal electroshock-induced seizures at 30 mg/kg, po after 4 hr. It counts as functional.
Series [2] deals with Mus musculus. The experiment in a line: Anticonvulsant activity in Swiss albino Mus musculus (mouse) assessed as protection against maximal electroshock-induced seizures at 30 mg/kg, ip after 0.5 hr. It counts as functional, organism-based. Set-up: dose 30 mg/kg.
Series [3] deals with Mus musculus. The experiment in a line: Neurotoxicity in Swiss albino Mus musculus (mouse) assessed as minimal motor impairment at 100 mg/kg, ip after 4 hr by rotorod test. Set-up: dose 100 mg/kg, route intraperitoneal. The conditions noted are these: in vivo. The series is classed as toxicity, organism-based.
Series [4] deals with Mus musculus. The experiment in a line: Neurotoxicity in Swiss albino Mus musculus (mouse) assessed as minimal motor impairment at 100 mg/kg, ip after 0.5 hr by rotorod test. The conditions noted are these: in vivo. Set-up: dose 100 mg/kg, route intraperitoneal. The series is classed as toxicity, organism-based.
The test system of series [5] is Mus musculus. Briefly: Anticonvulsant activity in Swiss albino Mus musculus (mouse) assessed as protection against subcutaneous pentylenetetrazole-induced seizure at 300 mg/kg, ip after 0.5 hr. The series is classed as functional, organism-based. Set-up: dose 300 mg/kg.
The subject of series [6] is Rattus norvegicus. Briefly: Anticonvulsant activity in Wistar Rattus norvegicus (rat) assessed as protection against maximal electroshock-induced seizures at 30 mg/kg, po after 0.5 hr. It counts as functional. In general terms: Protection in the maximal electroshock model is a classic sign of anticonvulsant action.
Series [7] relates to Rattus norvegicus. The experiment in a line: Anticonvulsant activity in Wistar Rattus norvegicus (rat) assessed as protection against maximal electroshock-induced seizures at 30 mg/kg, po after 2 hr. The series is classed as functional.
Series [8] concerns Rattus norvegicus. Briefly: Anticonvulsant activity in Wistar Rattus norvegicus (rat) assessed as protection against maximal electroshock-induced seizures at 30 mg/kg, po after 1 hr. The series is classed as functional.
Series [9] has as its system Mus musculus. The experiment in a line: Anticonvulsant activity in Swiss albino Mus musculus (mouse) assessed as protection against maximal electroshock-induced seizures at 30 mg/kg, ip after 4 hr. It counts as functional, organism-based. Also noted: dose 30 mg/kg.
The test system of series [10] is Rattus norvegicus. Briefly: Anticonvulsant activity in Wistar Rattus norvegicus (rat) assessed as protection against maximal electroshock-induced seizures at 30 mg/kg, po after 0.25 hr. It counts as functional.
Series [11] concerns Mus musculus. The experiment in a line: Anticonvulsant activity in Swiss albino Mus musculus (mouse) assessed as protection against subcutaneous pentylenetetrazole-induced seizure at 300 mg/kg, ip after 4 hr. Also noted: dose 300 mg/kg. It counts as functional, organism-based.
The test system of series [12] is Rattus norvegicus. Briefly: Neurotoxicity in Wistar Rattus norvegicus (rat) assessed as minimal motor impairment at 30 mg/kg, po after 0.25 to 4 hr by rotorod test. The series is classed as toxicity, organism-based. The conditions noted are these: in vivo. Set-up: dose 30 mg/kg, route oral.
Series [13] concerns Mus musculus. The experiment in a line: Neurotoxicity in Swiss albino Mus musculus (mouse) assessed as minimal motor impairment at 300 mg/kg, ip after 4 hr by rotorod test. It counts as toxicity, organism-based. Set-up: dose 300 mg/kg, route intraperitoneal. The conditions noted are these: in vivo.
Series [14] relates to Mus musculus. The experiment in a line: Neurotoxicity in Swiss albino Mus musculus (mouse) assessed as minimal motor impairment at 300 mg/kg, ip after 0.5 hr by rotorod test. The series is classed as toxicity, organism-based. Set-up: dose 300 mg/kg, route intraperitoneal. The conditions noted are these: in vivo.
The test system of series [15] is Mus musculus. Briefly: Anticonvulsant activity in Swiss albino Mus musculus (mouse) assessed as protection against subcutaneous pentylenetetrazole-induced seizure at 30 to 300 mg/kg, ip after 0.5 hr. It counts as functional, organism-based.
Series [16] relates to Mus musculus. The experiment in a line: Anticonvulsant activity in Swiss albino Mus musculus (mouse) assessed as protection against maximal electroshock-induced seizures at 100 mg/kg, ip after 0.5 hr. The series is classed as functional, organism-based. Also noted: dose 100 mg/kg.
In series [17] the test system is Mus musculus. Briefly: Anticonvulsant activity in Swiss albino Mus musculus (mouse) assessed as protection against maximal electroshock-induced seizures at 300 mg/kg, ip after 4 hr. The series is classed as functional, organism-based. Set-up: dose 300 mg/kg.

On to `O=C1NC(=O)C(c2ccccc2)(c2ccccc2)N1` [PHENYTOIN], for which the Activity in the series with Rattus norvegicus [1] is on record as 75%; in the series on Mus musculus [3], “Toxic”; in the series on Mus musculus [4] it was “Toxic”; in the series on Rattus norvegicus [6], 100%; in the series with Rattus norvegicus [7] it was 75%; in the series on Rattus norvegicus [8] it was 75%. The Activity was 25% in the series on Rattus norvegicus [10] and “Non-toxic” in the series with Rattus norvegicus [12]. For the same molecule, the result with Mus musculus [2] and in the series with Mus musculus [9] was Active. For the same molecule, the result in the series on Mus musculus [5] and in the series on Mus musculus [11] was inactive.

`Cc1ccc(C2CC(c3ccccc3)=NN2C(=O)c2ccc(-n3c(C)nc4c(Br)cc(Br)cc4c3=O)cc2)cc1` (stereo unspecified): the Activity is 75% in the series with Rattus norvegicus [1]; “Toxic” with Mus musculus [13]; “Non-toxic” with Mus musculus [14]; 50% in the series on Rattus norvegicus [6]; 75% in the series on Rattus norvegicus [7]; 50% in the series on Rattus norvegicus [8]. In addition, the figures for the Activity in the series with Rattus norvegicus [10] and in the series on Rattus norvegicus [12] were 25% and “Non-toxic”, respectively. The result with Mus musculus [15], in the series with Mus musculus [16], in the series with Mus musculus [17] and with Mus musculus [11] was Active.

`Cc1nc2ccccc2c(=O)n1-c1ccc(C(=O)N2N=C(c3ccccc3)CC2c2ccc(O)cc2)cc1` (stereo unspecified): the Activity in the series with Rattus norvegicus [1] is on record as 100%; in the series with Mus musculus [13], “Toxic”; with Mus musculus [4], “Toxic”; in the series on Rattus norvegicus [6] it was 50%; in the series with Rattus norvegicus [7], 100%; with Rattus norvegicus [8] it was 50%. Also, the Activity was 25% with Rattus norvegicus [10] and “Non-toxic” with Rattus norvegicus [12]. The result in the series on Mus musculus [2], with Mus musculus [5], in the series with Mus musculus [17] and with Mus musculus [11] was Active.

The values are drawn from ChEMBL document CHEMBL3045074, “Synthesis and anticonvulsant activity of novel quinazolin-4(3H)-one derived pyrazole analogs” (Med Chem Res, 2013).
